Converted amounts (≈) assume the structure as drawn.
Test system: S. aureus clinical isolates and S. aureus ATCC 29213
Experiment: MIC assay according to CLSI criteria, Example 2, S. aureus strains
Type: cell-based, Staphylococcus aureus
Conditions: Staphylococcus aureus
In short: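 Wells received roughly 5×10^5 S. aureus cells taken in exponential growth, in cation-adjusted MH broth. Plates held aerobically at 37° C for 18 hours.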

## CN[C@H](CC(C)C)C(=O)N[C@H]1C(=O)N[C@@H](CC(N)=O)C(=O)N[C@H]2C(=O)N[C@H]3C(=O)N[C@H](C(=O)N[C@H](C(=O)O)c4cc(O)cc(O)c4-c4cc3ccc4O)[C@H](O)c3ccc(c(Cl)c3)Oc3cc2cc(c3O[C@@H]2O[C@H](CO)[C@@H](O)[C@H](O)[C@H]2O[C@H]2C[C@](C)(N)[C@H](O)[C@H](C)O2)Oc2ccc(cc2Cl)[C@H]1O [Vancomycin]
ATCC 29213 / MRSA, strain MRSA 15
  MIC: 2 µg/mL (≈ 1.38 µM)
ATCC 29213 / MRSA, strain MRSA 16
  MIC: 1 µg/mL (≈ 0.69 µM)
ATCC 29213 / MRSA, strain MRSA 17
  MIC: 2 µg/mL (≈ 1.38 µM)
ATCC 29213 / MRSA, strain MRSA 18
  MIC: 1 µg/mL (≈ 0.69 µM)
ATCC 29213 / MRSA, strain MRSA 19
  MIC: 1 µg/mL (≈ 0.69 µM)
ATCC 29213 / MRSA, strain MRSA 20
  MIC: 1 µg/mL (≈ 0.69 µM)
ATCC 29213 / MRSA, strain MRSA 21
  MIC: 1 µg/mL (≈ 0.69 µM)
ATCC 29213 / MRSA, strain MRSA 22
  MIC: 0.5 µg/mL (≈ 0.345 µM)
ATCC 29213 / MRSA, strain MRSA 23
  MIC: 1 µg/mL (≈ 0.69 µM)
ATCC 29213 / MRSA, strain MRSA 24
  MIC: 2 µg/mL (≈ 1.38 µM)
ATCC 29213 / MRSA, strain MRSA 25
  MIC: 1 µg/mL (≈ 0.69 µM)
ATCC 29213 / MRSA, strain MRSA 26
  MIC: 1 µg/mL (≈ 0.69 µM)
ATCC 29213 / MRSA, strain MRSA 27
  MIC: 1 µg/mL (≈ 0.69 µM)
ATCC 29213 / MRSA, strain MRSA 27b
  MIC: 1 µg/mL (≈ 0.69 µM)
ATCC 29213 / MRSA, strain MRSA 28
  MIC: 1 µg/mL (≈ 0.69 µM)
ATCC 29213 / MRSA, strain MRSA 29
  MIC: 1 µg/mL (≈ 0.69 µM)
ATCC 29213 / MRSA, strain MRSA 30
  MIC: 1 µg/mL (≈ 0.69 µM)
ATCC 29213 / MRSA, strain MRSA 31
  MIC: 1 µg/mL (≈ 0.69 µM)
ATCC 29213 / MRSA, strain MRSA 32
  MIC: 1 µg/mL (≈ 0.69 µM)
ATCC 29213 / MRSA, strain MRSA 33
  MIC: 1 µg/mL (≈ 0.69 µM)
ATCC 29213 / MRSA, strain MRSA 34
  MIC: 1 µg/mL (≈ 0.69 µM)
ATCC 29213 / MRSA, strain MRSA 35
  MIC: 1 µg/mL (≈ 0.69 µM)
ATCC 29213 / MRSA, strain MRSA 36
  MIC: 1 µg/mL (≈ 0.69 µM)
ATCC 29213 / MRSA, strain MRSA 37
  MIC: 1 µg/mL (≈ 0.69 µM)
ATCC 29213 / MRSA, strain MRSA 38
  MIC: 1 µg/mL (≈ 0.69 µM)
ATCC 29213 / MRSA, strain MRSA 39
  MIC: 1 µg/mL (≈ 0.69 µM)
ATCC 29213 / MRSA, strain MRSA 40
  MIC: 1 µg/mL (≈ 0.69 µM)
ATCC 29213 / MRSA, strain MRSA 41
  MIC: 1 µg/mL (≈ 0.69 µM)
ATCC 29213 / MRSA, strain MRSA 42
  MIC: 1 µg/mL (≈ 0.69 µM)
ATCC 29213 / MRSA, strain MRSA 43
  MIC: 1 µg/mL (≈ 0.69 µM)
ATCC 29213 / MRSA, strain MRSA 44
  MIC: 1 µg/mL (≈ 0.69 µM)
ATCC 29213 / MRSA, strain MRSA 45
  MIC: 1 µg/mL (≈ 0.69 µM)
ATCC 29213 / MRSA, strain MRSA 46
  MIC: 1 µg/mL (≈ 0.69 µM)
ATCC 29213 / MRSA, strain MRSA 47
  MIC: 0.5 µg/mL (≈ 0.345 µM)
ATCC 29213 / MRSA, strain MRSA 48
  MIC: 0.5 µg/mL (≈ 0.345 µM)
ATCC 29213 / MRSA, strain MRSA 49
  MIC: 2 µg/mL (≈ 1.38 µM)
ATCC 29213 / MRSA, strain MRSA 50
  MIC: 1 µg/mL (≈ 0.69 µM)
ATCC 29213 / MRSA, strain MRSA 51
  MIC: 1 µg/mL (≈ 0.69 µM)
ATCC 29213 / MRSA, strain MRSA 52
  MIC: 1 µg/mL (≈ 0.69 µM)
ATCC 29213 / MRSA, strain MRSA 53
  MIC: 1 µg/mL (≈ 0.69 µM)
ATCC 29213 / MRSA, strain MRSA 54
  MIC: 2 µg/mL (≈ 1.38 µM)
ATCC 29213 / MRSA, strain MRSA 55
  MIC: 0.5 µg/mL (≈ 0.345 µM)
ATCC 29213 / MRSA, strain MRSA 56
  MIC: 1 µg/mL (≈ 0.69 µM)
ATCC 29213 / MRSA, strain MRSA 57
  MIC: 1 µg/mL (≈ 0.69 µM)
ATCC 29213 / MRSA, strain MRSA 58
  MIC: 1 µg/mL (≈ 0.69 µM)
ATCC 29213 / MRSA, strain MRSA 59
  MIC: 1 µg/mL (≈ 0.69 µM)
ATCC 29213 / MRSA, strain MRSA 60
  MIC: 0.5 µg/mL (≈ 0.345 µM)
ATCC 29213 / MRSA, strain MRSA 61
  MIC: 2 µg/mL (≈ 1.38 µM)
ATCC 29213 / MRSA, strain MRSA 62
  MIC: 2 µg/mL (≈ 1.38 µM)
ATCC 29213 / MRSA, strain MRSA 63
  MIC: 1 µg/mL (≈ 0.69 µM)
ATCC 29213 / MRSA, strain MRSA 64
  MIC: 1 µg/mL (≈ 0.69 µM)
ATCC 29213 / MRSA, strain MRSA 65
  MIC: 1 µg/mL (≈ 0.69 µM)
ATCC 29213 / MRSA, strain MRSA 66
  MIC: 1 µg/mL (≈ 0.69 µM)
ATCC 29213 / MRSA, strain MRSA 67
  MIC: 1 µg/mL (≈ 0.69 µM)
ATCC 29213 / MRSA, strain MRSA 68
  MIC: 1 µg/mL (≈ 0.69 µM)
ATCC 29213 / MRSA, strain MRSA 69
  MIC: 1 µg/mL (≈ 0.69 µM)
ATCC 29213 / MRSA, strain MRSA 70
  MIC: 1 µg/mL (≈ 0.69 µM)
ATCC 29213 / MRSA, strain MRSA 71
  MIC: 1 µg/mL (≈ 0.69 µM)
ATCC 29213 / MRSA, strain MRSA 72
  MIC: 1 µg/mL (≈ 0.69 µM)
ATCC 29213 / MRSA, strain MRSA 73
  MIC: 1 µg/mL (≈ 0.69 µM)
ATCC 29213 / MRSA, strain MRSA 74
  MIC: 2 µg/mL (≈ 1.38 µM)
ATCC 29213 / MRSA, strain MRSA 75
  MIC: 1 µg/mL (≈ 0.69 µM)
ATCC 29213 / MRSA, strain MRSA 76
  MIC: 1 µg/mL (≈ 0.69 µM)
ATCC 29213 / MRSA, strain MRSA 77
  MIC: 2 µg/mL (≈ 1.38 µM)
ATCC 29213 / MRSA, strain MRSA 78
  MIC: 1 µg/mL (≈ 0.69 µM)
ATCC 29213 / MRSA, strain MRSA 79
  MIC: 1 µg/mL (≈ 0.69 µM)
ATCC 29213 / MRSA, strain MRSA 80
  MIC: 1 µg/mL (≈ 0.69 µM)
ATCC 29213 / MRSA, strain MRSA 81
  MIC: 1 µg/mL (≈ 0.69 µM)
ATCC 29213 / MRSA, strain MRSA 82
  MIC: 2 µg/mL (≈ 1.38 µM)
ATCC 29213 / MRSA, strain MRSA 83
  MIC: 1 µg/mL (≈ 0.69 µM)
ATCC 29213 / MRSA, strain MRSA 84
  MIC: 2 µg/mL (≈ 1.38 µM)
ATCC 29213 / MRSA, strain MRSA 85
  MIC: 1 µg/mL (≈ 0.69 µM)
ATCC 29213 / MRSA, strain MRSA 86
  MIC: 2 µg/mL (≈ 1.38 µM)
ATCC 29213 / MRSA, strain MRSA 87
  MIC: 1 µg/mL (≈ 0.69 µM)
ATCC 29213 / MRSA, strain MRSA 88
  MIC: 1 µg/mL (≈ 0.69 µM)
ATCC 29213 / MRSA, strain MRSA 89
  MIC: 1 µg/mL (≈ 0.69 µM)
ATCC 29213 / MRSA, strain MRSA 90
  MIC: 1 µg/mL (≈ 0.69 µM)
ATCC 29213 / MRSA, strain MRSA 91
  MIC: 1 µg/mL (≈ 0.69 µM)
ATCC 29213 / MRSA, strain MRSA 92
  MIC: 1 µg/mL (≈ 0.69 µM)
ATCC 29213 / MRSA, strain MRSA 93
  MIC: 2 µg/mL (≈ 1.38 µM)
ATCC 29213 / MRSA, strain MRSA 94
  MIC: 2 µg/mL (≈ 1.38 µM)
ATCC 29213 / MRSA, strain MRSA 95
  MIC: 2 µg/mL (≈ 1.38 µM)
ATCC 29213 / MRSA, strain MRSA 96
  MIC: 1 µg/mL (≈ 0.69 µM)
ATCC 29213 / MRSA, strain MRSA 97
  MIC: 1 µg/mL (≈ 0.69 µM)
ATCC 29213 / MRSA, strain MRSA 98
  MIC: 1 µg/mL (≈ 0.69 µM)
ATCC 29213 / MRSA, strain MRSA 99
  MIC: 1 µg/mL (≈ 0.69 µM)
ATCC 29213 / MRSA, strain MRSA 100
  MIC: 1 µg/mL (≈ 0.69 µM)
ATCC 29213 / MRSA, strain MRSA 101
  MIC: 1 µg/mL (≈ 0.69 µM)
ATCC 29213 / MRSA, strain MRSA 102
  MIC: 2 µg/mL (≈ 1.38 µM)
ATCC 29213 / MRSA, strain MRSA 103
  MIC: 1 µg/mL (≈ 0.69 µM)
ATCC 29213 / MRSA, strain MRSA 104
  MIC: 1 µg/mL (≈ 0.69 µM)
ATCC 29213 / MRSA, strain MRSA 105
  MIC: 1 µg/mL (≈ 0.69 µM)
ATCC 29213 / MRSA, strain MRSA 106
  MIC: 1 µg/mL (≈ 0.69 µM)
ATCC 29213 / MRSA, strain MRSA 107
  MIC: 2 µg/mL (≈ 1.38 µM)
ATCC 29213 / MRSA, strain MRSA 108
  MIC: 1 µg/mL (≈ 0.69 µM)
ATCC 29213 / MRSA, strain MRSA 109
  MIC: 1 µg/mL (≈ 0.69 µM)
ATCC 29213 / MRSA, strain MRSA 110
  MIC: 1 µg/mL (≈ 0.69 µM)
ATCC 29213 / MRSA, strain MRSA 111
  MIC: 1 µg/mL (≈ 0.69 µM)
ATCC 29213 / MRSA, strain MRSA 112
  MIC: 1 µg/mL (≈ 0.69 µM)
ATCC 29213 / MRSA, strain MRSA 113
  MIC: 1 µg/mL (≈ 0.69 µM)
ATCC 29213 / MSSA, strain MSSA 01
  MIC: 1 µg/mL (≈ 0.69 µM)
ATCC 29213 / MSSA, strain MSSA 02
  MIC: 1 µg/mL (≈ 0.69 µM)
ATCC 29213 / NEWMAN, strain Newman
  MIC: 2 µg/mL (≈ 1.38 µM)
